The source of these data is paper PMC9798004 (Frontiers in Psychiatry, 2022).

pIC50: −log10 of the molar value.

Assay in all cases: PathHunter β-arrestin assay
Type in all cases: cell-based

One assay deals with T1, MRGPRX2 (Homo sapiens, UniProt Q96LB1).
T1 sequence (Q96LB1 1-330): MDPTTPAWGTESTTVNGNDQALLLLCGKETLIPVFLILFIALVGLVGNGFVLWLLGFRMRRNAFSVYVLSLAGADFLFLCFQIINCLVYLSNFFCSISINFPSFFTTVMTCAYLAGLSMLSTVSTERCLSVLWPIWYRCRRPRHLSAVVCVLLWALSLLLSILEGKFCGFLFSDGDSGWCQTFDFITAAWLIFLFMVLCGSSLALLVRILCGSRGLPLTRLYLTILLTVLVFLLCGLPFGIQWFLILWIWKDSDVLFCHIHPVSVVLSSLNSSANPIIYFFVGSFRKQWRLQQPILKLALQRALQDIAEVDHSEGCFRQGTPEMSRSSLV
To be noted: antagonist mode vs EC80 of control agonist, 10-point curve.

Another assay has as its target PTGER4 (Homo sapiens, UniProt P35408). The note with it: antagonist mode vs EC80 of control agonist, 10-point curve.
The target of another assay is CCR8 (Homo sapiens, UniProt P51685). The note with it: antagonist mode vs EC80 of control agonist, 10-point curve.
CCR8, sequence (P51685 whole entry): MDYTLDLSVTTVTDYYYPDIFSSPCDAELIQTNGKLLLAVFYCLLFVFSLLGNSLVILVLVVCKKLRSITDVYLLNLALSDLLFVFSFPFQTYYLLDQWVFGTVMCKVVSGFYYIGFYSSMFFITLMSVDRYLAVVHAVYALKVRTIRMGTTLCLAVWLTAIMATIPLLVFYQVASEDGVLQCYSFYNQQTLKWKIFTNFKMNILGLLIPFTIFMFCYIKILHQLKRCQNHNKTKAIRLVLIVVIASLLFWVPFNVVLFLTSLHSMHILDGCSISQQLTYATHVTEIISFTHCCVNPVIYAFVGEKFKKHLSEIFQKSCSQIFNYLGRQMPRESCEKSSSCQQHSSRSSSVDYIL
For a further assay, the target named is P2RY6 (Homo sapiens, UniProt Q15077). The note with it: antagonist mode, up to 30 μM.
P2RY6, sequence (Q15077 whole entry): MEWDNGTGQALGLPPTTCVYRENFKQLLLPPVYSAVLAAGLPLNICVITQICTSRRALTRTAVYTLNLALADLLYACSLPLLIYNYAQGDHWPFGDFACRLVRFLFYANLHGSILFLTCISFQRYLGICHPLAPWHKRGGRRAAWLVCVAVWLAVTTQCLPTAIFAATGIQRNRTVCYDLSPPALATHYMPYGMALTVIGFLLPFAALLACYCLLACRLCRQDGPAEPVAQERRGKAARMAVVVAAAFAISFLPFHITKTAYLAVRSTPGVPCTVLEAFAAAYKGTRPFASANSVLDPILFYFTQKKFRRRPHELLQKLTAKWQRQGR
The target of a further assay is T2, CCR4 (Homo sapiens, UniProt P51679).
T2 sequence (P51679 1-360): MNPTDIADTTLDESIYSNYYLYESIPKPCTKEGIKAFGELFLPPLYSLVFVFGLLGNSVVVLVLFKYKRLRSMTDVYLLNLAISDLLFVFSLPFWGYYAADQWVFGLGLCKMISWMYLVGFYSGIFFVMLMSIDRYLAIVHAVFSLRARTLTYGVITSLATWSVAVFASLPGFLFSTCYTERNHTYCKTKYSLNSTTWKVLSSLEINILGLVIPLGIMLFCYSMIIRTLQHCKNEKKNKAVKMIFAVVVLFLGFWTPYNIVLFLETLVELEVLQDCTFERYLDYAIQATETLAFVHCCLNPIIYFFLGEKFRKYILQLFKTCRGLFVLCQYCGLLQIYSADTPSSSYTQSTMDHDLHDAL
To be noted: antagonist mode vs EC80 of control agonist, 10-point curve.

Another assay deals with T3, CCR6 (Homo sapiens, UniProt P51684).
T3 construct: purchased Eurofins DiscoverX (PathHunter gpcrMAX)
T3 sequence (P51684 1-374): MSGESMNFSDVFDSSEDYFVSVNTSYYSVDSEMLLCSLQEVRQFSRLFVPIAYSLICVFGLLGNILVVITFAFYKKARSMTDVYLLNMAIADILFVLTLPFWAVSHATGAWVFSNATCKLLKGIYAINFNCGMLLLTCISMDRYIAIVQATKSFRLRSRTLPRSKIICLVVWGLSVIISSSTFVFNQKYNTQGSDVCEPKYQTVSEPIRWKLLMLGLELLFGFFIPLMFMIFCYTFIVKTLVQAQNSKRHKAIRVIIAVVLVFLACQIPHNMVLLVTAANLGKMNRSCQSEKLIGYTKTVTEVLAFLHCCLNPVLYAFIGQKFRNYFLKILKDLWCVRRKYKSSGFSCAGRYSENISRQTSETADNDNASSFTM
To be noted: antagonist mode, up to 30 μM.

A further assay has as its target T4, GLP2R (Homo sapiens, UniProt O95838).
T4 sequence (O95838 1-553): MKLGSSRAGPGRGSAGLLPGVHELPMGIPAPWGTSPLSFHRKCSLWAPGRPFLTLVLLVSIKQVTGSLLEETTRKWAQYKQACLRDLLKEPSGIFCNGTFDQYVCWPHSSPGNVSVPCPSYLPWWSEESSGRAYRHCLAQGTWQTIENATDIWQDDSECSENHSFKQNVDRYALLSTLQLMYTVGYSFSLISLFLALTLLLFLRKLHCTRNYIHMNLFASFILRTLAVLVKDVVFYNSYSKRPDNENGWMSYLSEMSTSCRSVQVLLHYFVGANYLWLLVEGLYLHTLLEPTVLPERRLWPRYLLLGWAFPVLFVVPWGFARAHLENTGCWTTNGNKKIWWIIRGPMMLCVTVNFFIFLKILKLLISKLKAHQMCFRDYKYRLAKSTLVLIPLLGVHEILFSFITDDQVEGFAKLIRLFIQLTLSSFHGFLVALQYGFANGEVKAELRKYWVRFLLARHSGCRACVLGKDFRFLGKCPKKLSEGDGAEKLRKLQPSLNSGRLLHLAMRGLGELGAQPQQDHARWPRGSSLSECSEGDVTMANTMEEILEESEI
The note with it: antagonist mode vs EC80 of control agonist, 10-point curve. A digest of the protocol: (§1)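 Targets were first selected by a >5-fold S/N versus CoV difference. Test compound was then titrated over 10 concentrations from 1.5 to 30 μM, with the relevant agonist at EC80 for antagonist readings. Normalized responses were fitted with a four-parameter model to give RC50.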

Another assay deals with T5, CCR10 (Homo sapiens, UniProt P46092).
T5 sequence (P46092 1-362): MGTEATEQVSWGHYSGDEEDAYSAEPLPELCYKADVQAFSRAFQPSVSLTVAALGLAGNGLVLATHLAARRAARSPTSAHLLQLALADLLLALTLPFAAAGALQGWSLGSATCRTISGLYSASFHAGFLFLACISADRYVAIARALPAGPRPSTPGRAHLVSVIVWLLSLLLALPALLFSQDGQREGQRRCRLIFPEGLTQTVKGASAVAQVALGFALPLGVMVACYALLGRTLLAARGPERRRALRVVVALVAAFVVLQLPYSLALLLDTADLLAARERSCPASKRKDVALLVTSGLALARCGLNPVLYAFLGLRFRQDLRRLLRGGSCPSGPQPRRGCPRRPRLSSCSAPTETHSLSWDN
The note with it: antagonist mode vs EC80 of control agonist, 10-point curve. A digest of the protocol: as §1

Another assay concerns the target T6, GIPR (Homo sapiens, UniProt P48546).
T6 construct: purchased Eurofins DiscoverX (PathHunter gpcrMAX)
The note with it: antagonist mode, up to 30 μM.

Another assay deals with T7, ADRA2A (Homo sapiens, UniProt P08913).
T7 construct: host or cells: CHO
T7 sequence (P08913 whole entry): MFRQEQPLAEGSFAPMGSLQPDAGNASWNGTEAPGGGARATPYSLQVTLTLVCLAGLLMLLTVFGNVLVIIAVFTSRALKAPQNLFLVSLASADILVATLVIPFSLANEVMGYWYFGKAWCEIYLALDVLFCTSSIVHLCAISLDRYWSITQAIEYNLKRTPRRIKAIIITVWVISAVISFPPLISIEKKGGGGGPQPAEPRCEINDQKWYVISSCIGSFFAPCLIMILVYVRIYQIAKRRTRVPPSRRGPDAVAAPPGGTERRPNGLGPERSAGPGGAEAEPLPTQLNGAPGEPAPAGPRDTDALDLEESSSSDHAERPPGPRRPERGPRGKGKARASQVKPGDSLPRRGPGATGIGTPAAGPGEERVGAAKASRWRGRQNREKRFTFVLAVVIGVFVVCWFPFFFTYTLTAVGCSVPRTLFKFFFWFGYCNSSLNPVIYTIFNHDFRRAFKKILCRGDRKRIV
To be noted: antagonist mode vs EC80 of control agonist, 10-point curve.

The target of the next assay is CALCR-RAMP2 (Homo sapiens, UniProt O60895+P30988). To be noted: antagonist mode vs EC80 of control agonist, 10-point curve.
CALCR-RAMP2, sequence (P30988 25-474): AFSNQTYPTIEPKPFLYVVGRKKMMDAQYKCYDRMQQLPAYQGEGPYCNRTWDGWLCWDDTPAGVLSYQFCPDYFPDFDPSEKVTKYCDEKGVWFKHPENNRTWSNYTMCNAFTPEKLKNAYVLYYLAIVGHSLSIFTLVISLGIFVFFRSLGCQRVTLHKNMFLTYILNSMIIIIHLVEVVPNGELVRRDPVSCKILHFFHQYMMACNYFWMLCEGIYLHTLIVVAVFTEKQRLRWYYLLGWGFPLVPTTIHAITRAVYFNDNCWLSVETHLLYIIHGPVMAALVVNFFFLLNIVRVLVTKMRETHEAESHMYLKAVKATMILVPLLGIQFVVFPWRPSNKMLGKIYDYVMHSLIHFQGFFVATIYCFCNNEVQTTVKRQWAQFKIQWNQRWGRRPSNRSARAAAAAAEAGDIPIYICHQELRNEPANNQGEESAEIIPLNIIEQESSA
CALCR-RAMP2, sequence (O60895 43-175 partner): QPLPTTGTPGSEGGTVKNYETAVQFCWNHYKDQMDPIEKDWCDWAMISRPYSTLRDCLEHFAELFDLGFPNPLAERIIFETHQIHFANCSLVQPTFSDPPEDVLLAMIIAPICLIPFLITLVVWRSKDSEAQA
A further assay concerns the target HRH2 (Homo sapiens, UniProt P25021). To be noted: antagonist mode vs EC80 of control agonist, 10-point curve.
In another assay the target is CALCRL-RAMP2 (Homo sapiens, UniProt O60895+Q16602). The note with it: antagonist mode vs EC80 of control agonist, 10-point curve.
CALCRL-RAMP2, sequence (Q16602 23-461): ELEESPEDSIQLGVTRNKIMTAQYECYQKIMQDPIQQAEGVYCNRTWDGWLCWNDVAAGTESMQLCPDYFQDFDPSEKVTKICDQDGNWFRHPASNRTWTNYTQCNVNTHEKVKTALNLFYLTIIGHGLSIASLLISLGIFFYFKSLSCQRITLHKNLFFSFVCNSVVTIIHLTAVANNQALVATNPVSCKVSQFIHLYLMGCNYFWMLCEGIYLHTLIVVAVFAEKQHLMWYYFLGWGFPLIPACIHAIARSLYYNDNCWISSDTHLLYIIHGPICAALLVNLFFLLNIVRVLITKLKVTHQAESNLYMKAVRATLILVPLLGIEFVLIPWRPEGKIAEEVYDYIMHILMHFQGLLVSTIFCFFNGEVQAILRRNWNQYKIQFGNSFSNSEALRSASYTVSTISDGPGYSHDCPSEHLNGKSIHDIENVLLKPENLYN
CALCRL-RAMP2, sequence (O60895 43-175 partner): as the sequence (O60895 43-175 partner) above

As a reminder, the pIC50 is the IC50 on a negative log10 scale, so that one unit is a factor of ten.

PTGER4, sequence (P35408 whole entry): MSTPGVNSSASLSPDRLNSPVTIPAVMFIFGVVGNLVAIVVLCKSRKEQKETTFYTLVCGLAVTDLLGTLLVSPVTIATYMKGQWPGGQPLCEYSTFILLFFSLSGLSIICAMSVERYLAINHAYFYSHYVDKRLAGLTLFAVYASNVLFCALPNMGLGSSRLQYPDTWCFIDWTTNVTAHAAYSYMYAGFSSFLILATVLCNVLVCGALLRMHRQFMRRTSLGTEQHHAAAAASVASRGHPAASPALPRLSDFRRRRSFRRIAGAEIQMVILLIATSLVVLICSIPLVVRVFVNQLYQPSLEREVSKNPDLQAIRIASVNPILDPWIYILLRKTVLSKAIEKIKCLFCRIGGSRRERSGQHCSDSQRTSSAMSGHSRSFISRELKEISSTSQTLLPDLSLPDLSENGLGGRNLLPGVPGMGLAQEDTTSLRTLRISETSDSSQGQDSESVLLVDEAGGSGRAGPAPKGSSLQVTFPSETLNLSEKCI
HRH2, sequence (P25021 whole entry): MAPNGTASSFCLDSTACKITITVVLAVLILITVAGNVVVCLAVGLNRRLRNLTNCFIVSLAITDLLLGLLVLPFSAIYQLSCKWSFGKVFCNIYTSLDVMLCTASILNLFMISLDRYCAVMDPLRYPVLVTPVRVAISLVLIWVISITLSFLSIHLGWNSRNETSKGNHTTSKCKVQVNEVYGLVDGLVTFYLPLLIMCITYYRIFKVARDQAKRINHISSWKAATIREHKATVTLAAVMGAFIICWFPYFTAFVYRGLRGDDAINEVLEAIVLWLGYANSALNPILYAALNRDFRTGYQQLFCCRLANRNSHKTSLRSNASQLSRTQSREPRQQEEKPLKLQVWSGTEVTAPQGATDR
T6 sequence (P48546 22-466): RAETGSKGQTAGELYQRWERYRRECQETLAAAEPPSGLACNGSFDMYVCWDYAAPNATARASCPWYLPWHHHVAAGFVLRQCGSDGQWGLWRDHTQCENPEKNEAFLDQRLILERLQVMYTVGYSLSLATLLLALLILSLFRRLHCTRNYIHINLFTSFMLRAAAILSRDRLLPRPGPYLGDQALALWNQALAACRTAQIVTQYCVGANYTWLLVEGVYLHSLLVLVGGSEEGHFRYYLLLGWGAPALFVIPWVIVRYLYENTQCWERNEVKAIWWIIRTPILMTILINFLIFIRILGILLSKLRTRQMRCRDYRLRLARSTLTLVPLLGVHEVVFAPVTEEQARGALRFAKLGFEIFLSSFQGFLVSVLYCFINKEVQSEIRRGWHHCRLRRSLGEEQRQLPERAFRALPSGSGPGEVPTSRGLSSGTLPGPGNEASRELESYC

On to `COC(=O)[C@@H](NC(=O)c1nn(Cc2ccc(F)cc2)c2ccccc12)C(C)C` [AMB-FUBINACA], for which the negative-log IC50 (pIC50) is 4.93 at MRGPRX2; 5.50 at PTGER4; 5.10 on CCR8; 4.94 at CCR4; 4.88 at GLP2R; 4.91 on CCR10. Besides, the pIC50 on ADRA2A was 4.92; at CALCR-RAMP2, 4.97; at HRH2, 4.88; on CALCRL-RAMP2, 5.00. Moreover, the “inhibitory activity in concentration-response” value at P2RY6, against CCR6 and at GIPR was “Activity was only observed at the highest concentration (30 μM)” throughout.
